Laboratory results published in patent publication US10201559B2, “Compositions of selenoorganic compounds and methods of use thereof” (Alltech, Inc., priority 2014, dated 2019).
Like-named read-outs stand apart in the source and are kept apart here. Square brackets hold non-standard residues; d marks the D form. Peptide text beside a SMILES is read from it. Sec = N[C@@H](C[SeH])C(=O)O

Columns and labels:
AML-12 cells = experiment: Cell viability assay, AML-12; format: cell-based, mouse
Procedure: (§1) Cell viability in cultured cells was determined using Promega's CellTiter96® AQueous One Solution Cell Proliferation Assay kits, according to the Manufacturer's protocol. In brief, equal number of C2C12 (1×10^4 cells/well), AML-12 (1×10^4 cells/well) and IMR-32 (2×10^4 cells/well) were seeded on 96-well clear plates (VWR) and treated with vehicle or compounds for 24, […] and/or 72 hr. Then, cultured cells were incubated with AQueous One solution (100 ul/per well) at 37° C. for 1 hr, and the absorbance of OD490 nm in each sample was determined by the Bio-Tek microplate reader. Cell viability in culture cells were determined by the subtraction of OD490 nm in cultured cells with the OD490 nm in plain culture media (without seeding of cells). Eight samples per each treatment were examined for the above analysis. Data are presented as Mean±sem of eight samples.

C2C12 cells = experiment: Quantitative analysis of mitochondrial potential in C2C12 cells; format: cell-based, mouse; settings: all concentrations
Procedure: For C2C12 cells, equal number of cells (1×10^4) were seeded on Corning 96-well clear-bottom and dark-wall cell culture plates (VWR), cultured in 10% FBS DMEM media for 24 hr., and then treated with vehicle (sterilized water), compound C and D and their sulfur analogs for 24 and 48 hrs. These vehicle- or compound-treated cells were rinsed twice with PBS, incubated with Mitotracker Orange fluorescence dye at 37° C. for 30 min, and then replaced with PBS. Mitotracker Orange fluorescence intensities (mitochondrial potential) in these living cells were determined by a Bio-TeK Synergy HT Multi-Mode Fluorescence Microplate Reader (Winooski, Vt.). Eight samples per each treatment were examined for the above analysis, and data are presented as mean±sem of eight samples.

IMR-32 cells [1] = experiment: Cell viability assay, IMR-32; format: cell-based, human
Procedure: as §1

[2] = test system: Adult rat brain ficoll purified mitochondria; experiment: Mitochondrial bioenergetics screen (Seahorse OCR) on isolated rat brain mitochondria; format: biochemical; settings: 500 ppb, 30 min at 37° C.
Source text: A water soluble extract was obtained from selenized yeast. […] We reasoned that these selenium species would be the first to be liberated/digested from selenized yeast in its passage through the intestinal tract. […] Because we were primarily interested in the potential effects of these selenium species on mitochondrial bioenergetics, it was decided to test these selenium molecules directly using mitochondria.
Selenium concentration ranges low (50 ppb), mid (500 ppb) and high (1 ppm) were initially tested as a possible range for the compounds. […] Adult rat brain ficoll purified mitochondria were incubated with the 9 compounds for 30 min at 37° C. prior to being loading into the Seahorse Biosciences flux analyzer in triplicate. We measured OCR (Oxygen Consumption Rates) parameters in three respiratory states including ATP synthesis (State III), Complex I dependent (NADH-driven) Maximum Respiratory Capacity (State VFCCP) and Complex II (FADH-driven) dependent Maximum Respiratory Capacity (State Vsucc).

IMR-32 cells [3] = experiment: Quantitative analysis of mitochondrial potential in IMR-32 cells; format: cell-based, human; settings: 6 hr, compared to control
Procedure: Similar to the above studies on AML-12 cells, the mitochondrial potential per cell in living IMR-32 cells was determined using the Bio-TeK Synergy HT Multi-Mode fluorescence microplate reader with the following modifications. To improve the attachment of IMR-32 cells to culture dishes, cell culture plates were precoated with 0.1% gelatin (Sigma, St. Louis, Mo.). 2×10^4 cells per a 96-well were seeded on gelatinized 96-well plates for the above studies. To reduce the cell dislodgment, Mitotracker orange and Hoechst 33342 fluorescent dyes (diluted in culture media) were directly added to each well after vehicle- or compound-treatments. After dye incubation, cell culture media were carefully replaced with 1× PBS for the quantitation analysis of fluorescence on the microplate reader. Eight samples per each treatment were examined for the above analysis, and the experiments were repeated at least five times. Data are presented as mean±sem of eight samples.

HEK293T cells = experiment: Fluorescence analysis of mitochondrial potential in HEK293T cells; format: cell-based, human; settings: dose not stated
Procedure: HEK293T cells were cultured in 8-chamber glass slides (1×10^4 cells/chamber) for 24 hours, and then treated with various concentrations of compounds or its respective sulfur analogs (dissolved in sterilized water) for 4.5 hr. These compound-treated cells were rinsed twice with PBS, and incubated with Mitotracker Orange Fluorescence Dye (Invitrogen) at 37° C. for 30 min, and then replaced with fresh PBS according to the Manufacturer's protocol. Then fluorescent signals (mitochondrial potential) in these living cells were recorded using a Zeiss Axio Vert.A1 fluorescence microscope (Thornwood, N.Y.). At least three samples in each treatment group were analyzed under the fluorescent microscope.

Compound	cell viability (OD490 nm) (AML-12 cells; 48 hr)	mitochondrial potential (C2C12 cells)	cell viability (OD490 nm) (IMR-32 cells [1]; 24, 48 and 72 hr)	mitochondrial potential (bioenergetics, OCR) [2]	MT potential / mitochondrial activity in kidney cells (HEK293T cells)	also measured
Nc1ncnc2c1ncn2[C@@H]1O[C@H](CSCCC(N)C(=O)O)C(O)C1O (stereo in doubt) [compound I, S-Adenosyl-L-homocysteine, reference compound]	no toxic effects	decreased mitochondrial potential at all concentrations	slight decrease in viability			
C[Se]C[C@H]1O[C@@H](n2cnc3c(N)ncnc32)[C@H](O)[C@@H]1O [Compound 9, MethylSelenoadenosine]				increased mitochondrial potential		
N[C@@H](CCC(=O)O)C(=O)N[C@@H](C[SeH])C(=O)O [Compound 10, Glutamylselenocysteine] (H-Glu-[Sec]-OH)				inhibited mitochondrial potential		
CSC[C@H]1O[C@@H](n2cnc3c(N)ncnc32)[C@@H](O)C1O (some centres unmarked) [compound H, 5′-Methylthioadenosine, reference compound]	no toxic effects	decreased mitochondrial potential at all concentrations	slight decrease in viability		incapable of stimulating mitochondrial activity	MT potential (IMR-32 cells [3]): Increased MT potential
CSC[C@H](NC(=O)CC[C@H](N)C(=O)O)C(=O)O [compound J, γ-L-glutamyl-methyl-L-cysteine, reference compound]					incapable of stimulating mitochondrial activity	cell viability (OD490 nm) (AML-12 cells): no toxic effects; cell viability (OD490 nm) (IMR-32 cells [1]): slight decrease in viability
Leucine-Threonine-Glycine-Selenomethionine-Alanine-Phenylalanine-Arginine [Compound 7]				inhibited mitochondrial potential		
